± gives the expanded uncertainty stated by the source.
Columns and labels:
[1] = for vapor or sublimation pressure: Transpiration method
[2] = xn = mol fraction of the nth substance listed; conditions: 298.15 K, 101 kPa, Liquid, Vibrating tube method
[3] = refractive index (Na D-line) (dimensionless); xn = mol fraction of the nth substance listed; conditions: 298.15 K, 101 kPa, Liquid, Standard Abbe refractometry
[4] = Molar enthalpy of transition or fusion; conditions: Crystal; DSC

Brc1ccccc1Br [1,2-dibromobenzene]
[1], Liquid
Conditions | vapor or sublimation pressure [kPa]
290.3 K | 0.01251 ± 0.00088
292.4 K | 0.01408 ± 0.001
292.5 K | 0.01451 ± 0.001
295.8 K | 0.01802 ± 0.0013
298.2 K | 0.02158 ± 0.0015
301.2 K | 0.02661 ± 0.0019
304.2 K | 0.03482 ± 0.0025
307.3 K | 0.04115 ± 0.0029
310.2 K | 0.05236 ± 0.0037
313.2 K | 0.06399 ± 0.0045
316.3 K | 0.07736 ± 0.0055
319.3 K | 0.09284 ± 0.0065
320.6 K | 0.09686 ± 0.0068
322.1 K | 0.1075 ± 0.0076
325.2 K | 0.1324 ± 0.0094
325.3 K | 0.135 ± 0.0095
328.2 K | 0.1579 ± 0.011

Brc1ccccc1Br [1,2-dibromobenzene] + c1ccccc1
Conditions | mass density, x1 = 0.00278 [kg/m3] | mass density, x1 = 0.00365 [kg/m3] | mass density, x1 = 0.00738 [kg/m3] | mass density, x1 = 0.01251 [kg/m3] | refractive index, x1 = 0.00278 | refractive index, x1 = 0.00365 | refractive index, x1 = 0.00738 | refractive index, x1 = 0.01251
[2] | 877.563 ± 0.19 | 878.834 ± 0.19 | 884.292 ± 0.19 | 891.807 ± 0.19 | – | – | – | –
[3] | – | – | – | – | 1.49816 ± 0.00031 | 1.49829 ± 0.00031 | 1.49882 ± 0.00031 | 1.49961 ± 0.00031

Brc1cccc(Br)c1 [1,3-dibromobenzene]
[1], Liquid
Conditions | vapor or sublimation pressure [kPa]
276.4 K | 0.00508 ± 0.00037
278.7 K | 0.00646 ± 0.00047
281.1 K | 0.00785 ± 0.00056
282.3 K | 0.0086 ± 0.00062
284.7 K | 0.01072 ± 0.00077
286.9 K | 0.01274 ± 0.00091
288.8 K | 0.01468 ± 0.0011
289.2 K | 0.0154 ± 0.0011
292.3 K | 0.01899 ± 0.0014
292.8 K | 0.01997 ± 0.0014
295 K | 0.02324 ± 0.0016
296.2 K | 0.02592 ± 0.0019
298.8 K | 0.03143 ± 0.0022
301 K | 0.03698 ± 0.0027
301.1 K | 0.03822 ± 0.0027
304.2 K | 0.04771 ± 0.0033
304.9 K | 0.0474 ± 0.0034
307.2 K | 0.05893 ± 0.0042
308.9 K | 0.06635 ± 0.0047
310 K | 0.07138 ± 0.005
312.9 K | 0.08294 ± 0.006
313.3 K | 0.08608 ± 0.0062
315.2 K | 0.1012 ± 0.0072
317.8 K | 0.1178 ± 0.0083

Brc1ccc(Br)cc1 [1,4-dibromobenzene]
[1], Crystal
Conditions | vapor or sublimation pressure [kPa]
296.5 K | 0.00693 ± 0.00051
299.5 K | 0.00922 ± 0.00067
302.4 K | 0.01272 ± 0.00092
303.5 K | 0.01383 ± 0.001
305.4 K | 0.01701 ± 0.0012
308.4 K | 0.02188 ± 0.0016
309.4 K | 0.02467 ± 0.0018
311.4 K | 0.02936 ± 0.0021
314.4 K | 0.03757 ± 0.0027
317.4 K | 0.04642 ± 0.0033
319.4 K | 0.05898 ± 0.0043
320.4 K | 0.06313 ± 0.0046
323.4 K | 0.08309 ± 0.006
329.6 K | 0.143 ± 0.01

Brc1ccc(Br)cc1 [1,4-dibromobenzene] + c1ccccc1
Conditions | mass density, x1 = 0.0018 [kg/m3] | mass density, x1 = 0.00185 [kg/m3] | mass density, x1 = 0.0025 [kg/m3] | mass density, x1 = 0.0033 [kg/m3] | refractive index, x1 = 0.0018 | refractive index, x1 = 0.00185 | refractive index, x1 = 0.0025 | refractive index, x1 = 0.0033
[2] | 876.211 ± 0.19 | 876.342 ± 0.19 | 877.295 ± 0.19 | 878.419 ± 0.19 | – | – | – | –
[3] | – | – | – | – | 1.49781 ± 0.00031 | 1.49784 ± 0.00031 | 1.49795 ± 0.00031 | 1.49808 ± 0.00031

Brc1ccc(Br)c2ccccc12 [1,4-dibromonaphthalene]
Conditions | Normal melting temperature [°C]
[1], Crystal, DTA | 80.0 ± 0.9

Conditions | Molar enthalpy of transition or fusion [kcal/mol]
[4] | 5.04 ± 0.12

Brc1ccc(Br)c2ccccc12 [1,4-dibromonaphthalene] + c1ccccc1
Conditions | mass density, x1 = 0.00087 [kg/m3] | mass density, x1 = 0.00189 [kg/m3] | mass density, x1 = 0.00208 [kg/m3] | mass density, x1 = 0.00321 [kg/m3] | refractive index, x1 = 0.00087 | refractive index, x1 = 0.00189 | refractive index, x1 = 0.00208 | refractive index, x1 = 0.00321
[2] | 875.112 ± 0.21 | 876.792 ± 0.23 | 877.158 ± 0.23 | 879.019 ± 0.21 | – | – | – | –
[3] | – | – | – | – | 1.49786 ± 0.00031 | 1.4982 ± 0.00031 | 1.49828 ± 0.00031 | 1.49872 ± 0.00031

Reference: the NIST ThermoML archive (doi:10.1021/je5008795)
